Data on 4 compounds can be found in US20260224688A1, “HELPER LIPIDS FOR NUCLEIC ACID DELIVERY” (SANOFI PASTEUR INC., priority 2023, published 2026).

A short description of series [1]: Dynamic light scattering of lipid nanoparticles (size, PDI). The class given is physicochemical. An outline of the steps: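 LNPs of cationic lipid:DMG-PEG2000:cholesterol:helper lipid at 40:1.5:30:28.5 molar ratio, made by Process A. Diluted in 10% trehalose (about 0.1 mg/ml mRNA) and sized by DLS at 173° backscatter with a 633-nm laser, giving size and PDI.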
A short description of series [2]: mRNA encapsulation efficiency of lipid nanoparticles. Type of series: physicochemical. As to conditions: for Encapsulation efficiency (EE): LNP with cationic lipid CL-A. An outline of the steps:
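Encapsulation by RiboGreen assay run with and without 0.1% Triton-X 100. LNPs made by ethanolic lipid mixing with acidic aqueous mRNA, molar ratio 40:1.5:30:28.5 (cationic lipid:DMG-PEG2000:cholesterol:helper lipid), ultrafiltered/diafiltered, stored at −80° C. Size/PdI by dynamic light scattering after dilution in 10% trehalose to about 0.1 mg/ml mRNA.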

Series [3] concerns hEPO. In words: IM EPO expression of LNPs containing new helper lipids (hEPO in serum by ELISA). The class given is in vivo, female BALB/cJ mice. Particulars: single IM injection. An outline of the steps: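 Female BALB/cJ mice aged 6-8 weeks received one intramuscular gastrocnemius injection of […] hEPO mRNA in 30 μL LNPs. The LNPs contained cationic lipid, phospholipid helper, cholesterol and DMG-PEG-2K at 40:30:28.5:1.5 mol %. Serum hEPO was measured by ELISA at 6 and 24 h.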

For series [4], the system named is hEPO. The series can be described thus: IV EPO expression of LNPs (tail vein injection). The class given is in vivo, female BALB/cJ mice. Particulars: cationic lipid CL-0137, helper lipid 30 mol %; 0.017 μg EPO mRNA tail vein; 6 hours; DOPE = 1. A digest of the protocol: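 Female BALB/cJ mice (6-8 weeks) received a single tail-vein injection of 0.017 μg hEPO mRNA in LNPs (cationic lipid CL-0137/helper lipid/cholesterol/DMG-PEG-2K, 40:30:28.5:1.5 mol %). Serum hEPO was measured by ELISA on blood taken 6 h post-dose.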

Setting [5] is: LNP with cationic lipid CL-A, hEPO mRNA, 40:30:28.5:1.5.
Setting [6] is: CL-A LNP, 0.1 μg EPO mRNA in 30 μL, serum 6 hours post injection.
The mark [7] stands for this setting: CL-B LNP, serum 6 hours post injection.

`CCCCCCCCC(CCCCCCCC)C(=O)OCCCCCC(=O)OCC(COP(=O)(O)OCCN(C)C)OC(=O)CCCCCOC(=O)C(CCCCCCCC)CCCCCCCC` (stereo not shown) [Compound 17, ((3-(((2-(Dimethylamino)ethoxy)(hydroxy)phosphoryl)oxy)propane-1,2-diyl)bis(oxy))bis(6-oxohexane-6,1-diyl) bis(2-octyldecanoate)]: the “Polydispersity Index (PDI)” value in series [1] (LNP with cationic lipid CL-A) came to 0.071. In addition, the Size is 137 nm in series [1] (setting [5]), 122.7 nm in series [1] (LNP with cationic lipid CL-B) and 110.9 nm in series [1] (LNP with cationic lipid CL-C). Also, the values for the PDI in series [1] (LNP with cationic lipid CL-B) and in series [1] (LNP with cationic lipid CL-C) were 0.022 and 0.054, respectively. Also, the “Encapsulation efficiency (EE)” value in series [2] is reported as 93%. Besides, the values for the EE in series [2] (LNP with cationic lipid CL-B) and in series [2] (LNP with cationic lipid CL-C) were 81% and 60%, respectively. The “6-h EPO” value in series [3] (setting [6]) was 16.3 ng/mL; in series [3] (setting [7]), 14.5 ng/mL; in series [3] (CL-C LNP, (6-h)), 31.7 ng/mL. The “Normalized Mean IV EPO expression” value in series [4] turned out to be 4.53.
As to `CCCCCCCCC(CCCCCCCC)C(=O)OCCCCCCC(=O)OCC(COP(=O)(O)OCCN(C)C)OC(=O)CCCCCCOC(=O)C(CCCCCCCC)CCCCCCCC` (stereo not shown) [Compound 18, ((3-(((2-(Dimethylamino)ethoxy)(hydroxy)phosphoryl)oxy)propane-1,2-diyl)bis(oxy))bis(7-oxoheptane-7,1-diyl) bis(2-octyldecanoate)], in series [1] (LNP with cationic lipid CL-A), the “Polydispersity Index (PDI)” value is given as 0.072. Besides, the Size was 155 nm in series [1] (setting [5]), 117.5 nm in series [1] (LNP with cationic lipid CL-B) and 117.5 nm in series [1] (LNP with cationic lipid CL-C). Also, the PDI in series [1] (LNP with cationic lipid CL-B) and in series [1] (LNP with cationic lipid CL-C) was 0.104 each time. For the same compound, the “Encapsulation efficiency (EE)” value in series [2] worked out at 93%. The EE in series [2] (LNP with cationic lipid CL-B) and in series [2] (LNP with cationic lipid CL-C) was 89% in each case. Besides, the “6-h EPO” value in series [3] (setting [6]) worked out at 30.1 ng/mL; in series [3] (setting [7]) it was 23.7 ng/mL; in series [3] (CL-C LNP, (6-h)), 28.8 ng/mL. Also, in series [4], the “Normalized Mean IV EPO expression” value is 4.68.
For the compound `CCCCCCCCCCC(CCCCCCCCCC)OC(=O)CCCCCCC(=O)OCC(COP(=O)(O)OCCN(C)C)OC(=O)CCCCCCC(=O)OC(CCCCCCCCCC)CCCCCCCCCC` (stereo not shown) [Compound 19, O′1,O1-(3-(((2-(dimethylamino)ethoxy)(hydroxy)phosphoryl)oxy)propane-1,2-diyl) 8-di(henicosan-11-yl) di(octanedioate)], the “Polydispersity Index (PDI)” value in series [1] (LNP with cationic lipid CL-A) worked out at 0.075. Besides, the Size came out at 136 nm in series [1] (setting [5]), 112.7 nm in series [1] (LNP with cationic lipid CL-B) and 110.6 nm in series [1] (LNP with cationic lipid CL-C). Moreover, the PDI in series [1] (LNP with cationic lipid CL-B) is listed as 0.095; in series [1] (LNP with cationic lipid CL-C), 0.078. In series [2], the “Encapsulation efficiency (EE)” value stood at 94%. The EE amounted to 93% in series [2] (LNP with cationic lipid CL-B) and 92% in series [2] (LNP with cationic lipid CL-C). In addition, the “6-h EPO” value came to 11.7 ng/mL in series [3] (setting [6]); 28.9 ng/mL in series [3] (setting [7]); 12.9 ng/mL in series [3] (CL-C LNP, (6-h)). In addition, in series [4], the “Normalized Mean IV EPO expression” value worked out at 2.59.
Regarding `CCCCCCCCC(CCCCCCCC)OC(=O)CCCCCCC(=O)OCC(COP(=O)(O)OCC[N+](C)(C)C)OC(=O)CCCCCCC(=O)OC(CCCCCCCC)CCCCCCCC` (stereo not shown) [Compound 24, 2-(((2,3-Bis((8-(heptadecan-9-yloxy)-8-oxooctanoyl)oxy)propoxy)(hydroxy)-phosphoryl)oxy)-N,N,N-trimethylethan-1-aminium], the “Polydispersity Index (PDI)” value in series [1] (LNP with cationic lipid CL-A) was 0.055. Also, the Size in series [1] (setting [5]) is 160 nm; in series [1] (LNP with cationic lipid CL-B), 107.0 nm; in series [1] (LNP with cationic lipid CL-C) it was 108.8 nm. The PDI came to 0.111 in series [1] (LNP with cationic lipid CL-B) and 0.116 in series [1] (LNP with cationic lipid CL-C). Besides, in series [2], the “Encapsulation efficiency (EE)” value is 94%. Moreover, the EE is given as 87% in series [2] (LNP with cationic lipid CL-B) and 85% in series [2] (LNP with cationic lipid CL-C). The “6-h EPO” value in series [3] (setting [6]) was determined as 19.2 ng/mL; in series [3] (setting [7]) it was 29.4 ng/mL; in series [3] (CL-C LNP, (6-h)), 19.5 ng/mL. Also, in series [4], the “Normalized Mean IV EPO expression” value was determined as 1.82.
